Experimental data reported in patent US20240383882A1 (Ecstasy LLC, priority 2020, published 2024).

system: male C57BL/6 mice; assay: 55° C. warm-water tail-flick test (antinociception); assay type: in vivo; settings: Mus musculus; half maximal effective dose in mice; using one of: warm water tail-flick test, spared nerve injury, chronic constriction injury, or Complete Freund's adjuvant induced inflammatory pain (not stated which per compound); read-out: Biological Activity (ED50)
Description: Antinociception was assessed using the 55° C. warm-water tail-flick test. The latency to the first sign of a rapid tail flick was taken as the behavioral endpoint. Each mouse was first tested for baseline latency by immersing its tail in the water and recording the time to response. Mice not responding within 2 secs were excluded from further testing. Responsive mice were then s.c. administered the test compound and tested for antinociception at 30 min, 60 min, 90 min, and 120 min time points afterward. Antinociception was calculated using the following formula: percentage of antinociception=100×(test latency−control latency)/(20−control latency).
The following new compounds were also made and tested to determine the half maximal possible effective dose, or ED50 (mg/kg), in mice, using one of: the warm water tail-flick test as in Table II, spared nerve injury, chronic constriction injury, or Complete Freund's adjuvant induced inflammatory pain. The symbols in the last column are: + indicates ED 50>50 mg/kg; ++ indicates ED 50 is less than or equal to 30 mg/kg.

`CC(C)(c1ccccn1)N1CC[C@@](CCc2ccc(F)c(F)c2)(C(O)C(F)(F)F)C1` (single isomer, unassigned) [Compound 150, (R or S)-1-((R)-3-(3,4-difluorophenethyl)-1-(2-(pyridin-2-yl)propan-2-yl)pyrrolidin-3-yl)-2,2,2-trifluoroethan-1-ol] was tested. Which ED50 did it give?
Its ED50 is at most 30 mg/kg.

`CC(C)(c1ccccn1)N1CC[C@@](CCc2ccc(C#N)s2)(C(O)C(F)(F)F)C1` (single isomer, unassigned) [Compound 152, 5-(2-((R)-1-(2-(pyridin-2-yl)propan-2-yl)-3-((R or S)-2,2,2-trifluoro-1-hydroxyethyl)pyrrolidin-3-yl)ethyl)thiophene-2-carbonitrile] was tested. Which ED50 did it give?
Its ED50 is at most 30 mg/kg.

For `CCOC(C(F)(F)F)[C@]1(CCc2ccc(C#N)s2)CCN(C(C)(C)c2ccccn2)C1` (single isomer, unassigned) [Compound 156, 5-(2-((R)-3-((R or S)-1-ethoxy-2,2,2-trifluoroethyl)-1-(2-(pyridin-2-yl)propan-2-yl)pyrrolidin-3-yl)ethyl)thiophene-2-carbonitrile], which ED50 is on record?
Its ED50 is at most 30 mg/kg.

For `CCOC(C(F)(F)F)[C@]1(CCc2ccc(C#N)cc2)CCN(C(C)(C)c2ccc(C)nc2)C1` (single isomer, unassigned) [Compound 170, 4-(2-((R)-3-((R or S)-1-ethoxy-2,2,2-trifluoroethyl)-1-(2-(6-methylpyridin-3-yl)propan-2-yl)pyrrolidin-3-yl)ethyl) benzonitrile], which ED50 is on record?
The ED50 was over 50 mg/kg.

With `CC(C)(c1ccccn1)N1CC[C@@](CCc2ccc3ccoc3c2)(C(O)C(F)(F)F)C1` (single isomer, unassigned) [Compound 172, (R or S)-1-((R)-3-(2-(benzofuran-6-yl)ethyl)-1-(2-(pyridin-2-yl)propan-2-yl)pyrrolidin-3-yl)-2,2,2-trifluoroethan-1-ol] as the compound, how does the ED50 read?
The ED50 was over 50 mg/kg.

`CC(C)(c1ccccn1)N1CC[C@@](CCc2ccc3nonc3c2)(C(O)C(F)(F)F)C1` (single isomer, unassigned) [Compound 176, (R or S)-1-((R)-3-(2-(benzo[c][1,2,5]oxadiazol-5-yl)ethyl)-1-(2-(pyridin-2-yl)propan-2-yl)pyrrolidin-3-yl)-2,2,2-trifluoroethan-1-ol] was tested. Which ED50 did it give?
The ED50 was over 50 mg/kg.

How did the ED50 turn out when `CC1(C)COC1[C@]1(CCc2ccc(C#N)cc2)CCN(Cc2ccccn2)C1` (single isomer, unassigned) [Compound 192, 4-(2-((R)-3-((R or S)-3,3-dimethyloxetan-2-yl)-1-(pyridin-2-ylmethyl)pyrrolidin-3-yl)ethyl) benzonitrile] was run?
The ED50 was at most 30 mg/kg.

`CC1(C)COC1[C@]1(CCc2ccc(C#N)cc2)CCN(Cc2cccnc2)C1` (single isomer, unassigned) [Compound 193, 4-(2-((R)-3-((R or S)-3,3-dimethyloxetan-2-yl)-1-(pyridin-3-ylmethyl)pyrrolidin-3-yl)ethyl) benzonitrile] was tested. Which ED50 did it give?
The ED50 was at most 30 mg/kg.

How did the ED50 turn out when `Cc1ccc(CN2CC[C@@](CCc3ccc(C#N)cc3)(C3OCC3(C)C)C2)cn1` (single isomer, unassigned) [Compound 194, 4-(2-((R)-3-((R or S)-3,3-dimethyloxetan-2-yl)-1-((6-methylpyridin-3-yl)methyl)pyrrolidin-3-yl)ethyl) benzonitrile] was run?
The ED50 was at most 30 mg/kg.

With `CC1(C)COC1[C@]1(CCc2ccc(C#N)cc2)CCN(Cc2ccc(Cl)cc2)C1` (single isomer, unassigned) [Compound 195, 4-(2-((R)-1-(4-chlorobenzyl)-3-((R or S)-3,3-dimethyloxetan-2-yl)pyrrolidin-3-yl)ethyl) benzonitrile] as the compound, how does the ED50 read?
Its ED50 is at most 30 mg/kg.

How did the ED50 turn out when `N#Cc1ccc(CC[C@@]2(C3OCC3(F)F)CCN(Cc3ccccn3)C2)cc1` (single isomer, unassigned) [Compound 196, 4-(2-((R)-3-((R or S)-3,3-difluorooxetan-2-yl)-1-(pyridin-2-ylmethyl)pyrrolidin-3-yl)ethyl) benzonitrile] was run?
The ED50 was at most 30 mg/kg.

Which ED50 does the source give for `N#Cc1ccc(CC[C@@]2(C3OCC3(F)F)CCN(Cc3cccnc3)C2)cc1` (single isomer, unassigned) [Compound 197, 4-(2-((R)-3-((R or S)-3,3-difluorooxetan-2-yl)-1-(pyridin-3-ylmethyl)pyrrolidin-3-yl)ethyl) benzonitrile] here?
Its ED50 is at most 30 mg/kg.

Which ED50 does the source give for `Cc1ccc(CN2CC[C@@](CCc3ccc(C#N)cc3)(C3OCC3(F)F)C2)cn1` (single isomer, unassigned) [Compound 198, 4-(2-((R)-3-((R or S)-3,3-difluorooxetan-2-yl)-1-((6-methylpyridin-3-yl)methyl)pyrrolidin-3-yl)ethyl) benzonitrile] here?
Its ED50 is at most 30 mg/kg.

For `N#Cc1ccc(CC[C@@]2(C3OCC3(F)F)CCN(Cc3ccc(Cl)cc3)C2)cc1` (single isomer, unassigned) [Compound 199, 4-(2-((R)-1-(4-chlorobenzyl)-3-((R or S)-3,3-difluorooxetan-2-yl)pyrrolidin-3-yl)ethyl) benzonitrile], which ED50 is on record?
The ED50 was at most 30 mg/kg.

With `CC1(C)COC1[C@]1(CCc2ccc(C#N)cc2)CCN(Cc2ccc(C#N)cc2)C1` (single isomer, unassigned) [Compound 204, 4-(2-((R)-1-(4-cyanobenzyl)-3-((R or S)-3,3-dimethyloxetan-2-yl)pyrrolidin-3-yl)ethyl) benzonitrile] as the compound, how does the ED50 read?
Its ED50 is at most 30 mg/kg.

How did the ED50 turn out when `COc1ccc(CN2CC[C@@](CCc3ccc(C#N)cc3)(C3OCC3(C)C)C2)cc1` (single isomer, unassigned) [Compound 205, 4-(2-((R)-3-((R or S)-3,3-dimethyloxetan-2-yl)-1-(4-methoxybenzyl)pyrrolidin-3-yl)ethyl) benzonitrile] was run?
Its ED50 is at most 30 mg/kg.

For `CC1(C)COC1[C@]1(CCc2ccc(C#N)cc2)CCN(Cc2ncc(Cl)cn2)C1` (single isomer, unassigned) [Compound 210, 4-(2-((R)-1-((5-chloropyrimidin-2-yl)methyl)-3-((R or S)-3,3-dimethyloxetan-2-yl)pyrrolidin-3-yl)ethyl)benzonitrile], which ED50 is on record?
Its ED50 is over 50 mg/kg.

How did the ED50 turn out when `CC1(C)COC1[C@]1(CCc2ccc(C#N)cc2)CCN(Cc2ncc(Cl)s2)C1` (single isomer, unassigned) [Compound 211, 4-(2-((R)-1-((5-chlorothiazol-2-yl)methyl)-3-((R or S)-3,3-dimethyloxetan-2-yl)pyrrolidin-3-yl)ethyl)benzonitrile] was run?
Its ED50 is at most 30 mg/kg.

How did the ED50 turn out when `CC(C)(c1ccccc1)N1CC[C@](CCc2ccc(S(C)(=O)=O)cc2)(C(O)C(F)(F)F)C1` (single isomer, unassigned) [Compound 213, (R or S)-2,2,2-trifluoro-1-((S)-3-(4-(methylsulfonyl)phenethyl)-1-(2-phenylpropan-2-yl)pyrrolidin-3-yl)ethan-1-ol] was run?
Its ED50 is at most 30 mg/kg.

same assay, conditions: half maximal effective dose in mice; using one of: warm water tail-flick test, spared nerve injury, chronic constriction injury, or Complete Freund's adjuvant induced inflammatory pain (not stated which per compound)

How did the “Biological Activity (ED50)” value turn out when `CC(C)(c1ccccn1)N1CC[C@@](CCc2ccc(F)c(F)c2)(C(O)C(F)(F)F)C1` (single isomer, unassigned) [Compound 151, (R or S)-1-((R)-3-(3,4-difluorophenethyl)-1-(2-(pyridin-2-yl)propan-2-yl)pyrrolidin-3-yl)-2,2,2-trifluoroethan-1-ol] was run?
Its value is “+ (+ indicates ED 50>50 mg/kg)”.

With `CC(C)(c1ccccn1)N1CC[C@@](CCc2ccc(C#N)s2)(C(O)C(F)(F)F)C1` (single isomer, unassigned) [Compound 153, 5-(2-((R)-1-(2-(pyridin-2-yl)propan-2-yl)-3-((R or S)-2,2,2-trifluoro-1-hydroxyethyl)pyrrolidin-3-yl)ethyl)thiophene-2-carbonitrile] as the compound, how does the “Biological Activity (ED50)” value read?
Its value is “+ (+ indicates ED 50>50 mg/kg)”.
